Emax and EC50 data for three compounds are collected here from patent US20230265151A1, “GIP/GLP1 CO-AGONIST COMPOUNDS” (priority 2020, published 2023).

What all share (format): cell-based
Assay [1] has as its target hGLP-1R (Homo sapiens, UniProt P43220). Description: Functional cAMP formation (HTRF) in HEK-293 clonal cells expressing hGLP-1R, 0.1% bovine casein, without or with 1.0% human serum albumin. Details: expressed in transfected cells. In a few lines: (§1)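 Cells were stimulated with peptide for 30 min at 37° C, then lysed in buffer carrying cAMP-d2 and anti-cAMP Eu3+-cryptate for a competitive HTRF read after at least 60 min at room temperature. The 665/620 nm ratio was converted to nM cAMP against a standard curve.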
(In general: Cyclic AMP is a second messenger, typically raised through Gs and lowered through Gi signalling.)

The target in assay [2] is T1, hGCGR (Homo sapiens, UniProt P47871).
T1 construct: expressed in transfected cells
T1 sequence (P47871 26-477): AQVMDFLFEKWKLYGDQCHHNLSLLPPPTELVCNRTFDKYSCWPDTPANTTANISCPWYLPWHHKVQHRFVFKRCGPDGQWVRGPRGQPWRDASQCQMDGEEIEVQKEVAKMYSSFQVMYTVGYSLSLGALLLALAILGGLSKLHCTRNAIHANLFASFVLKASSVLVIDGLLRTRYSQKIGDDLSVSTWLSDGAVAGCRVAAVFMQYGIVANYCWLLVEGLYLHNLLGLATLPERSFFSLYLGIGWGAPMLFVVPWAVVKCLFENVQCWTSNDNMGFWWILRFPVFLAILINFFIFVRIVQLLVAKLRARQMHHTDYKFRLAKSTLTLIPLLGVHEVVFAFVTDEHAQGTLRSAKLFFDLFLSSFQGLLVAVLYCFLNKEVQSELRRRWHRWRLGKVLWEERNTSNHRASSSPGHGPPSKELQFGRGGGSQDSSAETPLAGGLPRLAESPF
The assay can be described thus: Functional cAMP formation (HTRF) in HEK-293 clonal cells expressing hGCGR, 0.1% bovine casein, without or with 1.0% human serum albumin. An outline of the steps:
as §1

In assay [3] the target is T2, hGIPR (Homo sapiens, UniProt P48546).
T2 construct: expressed in transfected cells
T2 sequence (P48546 22-466): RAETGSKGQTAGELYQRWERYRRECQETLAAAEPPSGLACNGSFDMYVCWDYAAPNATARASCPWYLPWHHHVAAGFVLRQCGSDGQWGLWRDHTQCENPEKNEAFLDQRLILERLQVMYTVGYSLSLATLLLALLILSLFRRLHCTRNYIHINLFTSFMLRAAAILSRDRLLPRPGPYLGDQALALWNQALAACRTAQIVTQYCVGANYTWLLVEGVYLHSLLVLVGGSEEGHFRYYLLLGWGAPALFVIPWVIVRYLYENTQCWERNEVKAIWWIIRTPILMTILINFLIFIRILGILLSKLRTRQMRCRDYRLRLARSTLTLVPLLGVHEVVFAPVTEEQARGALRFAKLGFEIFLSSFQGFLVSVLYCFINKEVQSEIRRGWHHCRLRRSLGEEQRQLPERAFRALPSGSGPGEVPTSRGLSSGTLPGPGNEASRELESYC
Description: Functional cAMP formation (HTRF) in HEK-293 clonal cells expressing hGIPR, 0.1% bovine casein, without or with 1.0% human serum albumin. An outline of the steps:
as §1

SMILES strings stand for the structures. Where two headings read alike, the source gives them in different places. *1 amine or outer side, *2 acyl side, *3 side chain or, on linkers, in order; H or OH if unused. Where a SMILES comes first, the peptide text is derived from it. Side-chain parts run from the residue outwards. [ ]: non-standard residue; d: D form. The star is where a group is joined. Decanoyl(10-(4-HOOC-PhO)) = O=C(O)c1ccc(OCCCCCCCCCC(=O)*)cc1; αMePhe(2-F) = C[C@](N)(Cc1ccccc1F)C(=O)O; γGlu = O=C(O)[C@H](CCC(=O)[*:2])N[*:1]; αMeY = C[C@](N)(Cc1ccc(O)cc1)C(=O)O; αMeL = CC(C)C[C@](C)(N)C(=O)O; Orn = NCCC[C@H](N)C(=O)O; AEEA = NCCOCCOCC(=O)O; Aib = CC(C)(N)C(=O)O

hGLP-1R, sequence (P43220 24-463): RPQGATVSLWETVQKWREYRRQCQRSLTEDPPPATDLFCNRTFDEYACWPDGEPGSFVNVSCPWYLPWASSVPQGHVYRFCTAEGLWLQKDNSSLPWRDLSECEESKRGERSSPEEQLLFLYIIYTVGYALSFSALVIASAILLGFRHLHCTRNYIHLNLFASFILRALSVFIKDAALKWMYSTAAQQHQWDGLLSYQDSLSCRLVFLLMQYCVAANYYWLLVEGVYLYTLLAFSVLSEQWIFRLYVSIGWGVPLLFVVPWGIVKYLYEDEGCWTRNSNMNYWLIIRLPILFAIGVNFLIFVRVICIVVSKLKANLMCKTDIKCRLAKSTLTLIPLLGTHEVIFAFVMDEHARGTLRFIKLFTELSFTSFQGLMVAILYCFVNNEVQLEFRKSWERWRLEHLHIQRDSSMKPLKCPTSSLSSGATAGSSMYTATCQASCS

With `CC[C@H](C)[C@H](NC(=O)[C@H](CC(C)C)NC(=O)[C@](C)(Cc1ccc(O)cc1)NC(=O)[C@H](CCCCNC(=O)COCCOCCNC(=O)COCCOCCNC(=O)CC[C@H](NC(=O)CCCCCCCCCOc1ccc(C(=O)O)cc1)C(=O)O)NC(=O)[C@@H](NC(=O)[C@H](Cc1ccccc1)NC(=O)[C@H](CCC(=O)O)NC(=O)C(C)(C)NC(=O)[C@H](CCC(N)=O)NC(=O)[C@H](C)NC(=O)[C@H](CCC(N)=O)NC(=O)[C@H](CCCN)NC(=O)[C@H](CC(=O)O)NC(=O)[C@H](CC(C)C)NC(=O)[C@](C)(CC(C)C)NC(=O)[C@@H](NC(=O)C(C)(C)NC(=O)[C@H](Cc1ccc(O)cc1)NC(=O)[C@H](CC(=O)O)NC(=O)[C@H](CO)NC(=O)[C@@H](NC(=O)[C@](C)(Cc1ccccc1F)NC(=O)[C@@H](NC(=O)CNC(=O)[C@H](CCC(=O)O)NC(=O)C(C)(C)NC(=O)[C@@H](N)Cc1ccc(O)cc1)[C@@H](C)O)[C@@H](C)O)[C@@H](C)CC)[C@@H](C)CC)C(=O)N[C@@H](CCCCNC(=O)COCCOCCNC(=O)COCCOCCNC(=O)CC[C@H](NC(=O)CCCCCCCCCOc1ccc(C(=O)O)cc1)C(=O)O)C(=O)NCC(=O)NCC(=O)N1CCC[C@H]1C(=O)N[C@@H](CO)C(=O)N[C@@H](CO)C(=O)NCC(=O)N[C@@H](C)C(=O)N1CCC[C@H]1C(=O)N1CCC[C@H]1C(=O)N1CCC[C@H]1C(=O)N[C@@H](CO)C(N)=O` [Example 402], the Emax in assay [1] (HEK293, read-out: hGLP-1R Emax, % ± SEM, cAMP, 37° C., 0.1% bovine casein and 1.0% human serum albumin, percent of maximal response to GLP-1(7-36)NH2) came to 110%; in assay [3] (HEK293, read-out: hGIPR Emax, % ± SEM, cAMP, 37° C., 0.1% bovine casein and 1.0% human serum albumin, percent of maximal response to GIP(1-42)NH2), 84.5%; in assay [3] (HEK293, read-out: hGIPR Emax, % ± SEM, cAMP, 37° C., 0.1% bovine casein, percent of maximal response to GIP(1-42)NH2, arithmetic mean), 98.9%. In addition, the concentration for a half-maximal effect (EC50) in assay [1] (hGLP-1R EC50, nM (SEM, n), cAMP, 37° C., 0.1% bovine casein (no human serum albumin), geometric mean) was 0.221 nM; in assay [1] (hGLP-1R EC50, nM (SEM, n), cAMP, 37° C., 0.1% bovine casein and 1.0% human serum albumin, geometric mean (SEM, n)), 13.5 nM; in assay [2] (hGCGR EC50, nM (SEM, n), cAMP, 37° C., 0.1% bovine casein (no human serum albumin), geometric mean) it was > 9950 nM; in assay [2] (hGCGR EC50, nM (SEM, n), cAMP, 37° C., 0.1% bovine casein and 1.0% human serum albumin, geometric mean (SEM, n)), > 9950 nM; in assay [3] (hGIPR EC50, nM (SEM, n), cAMP, 37° C., 0.1% bovine casein (no human serum albumin), geometric mean), 0.0132 nM; in assay [3] (hGIPR EC50, nM (SEM, n), cAMP, 37° C., 0.1% bovine casein and 1.0% human serum albumin, geometric mean (SEM, n)) it was 1.11 nM.
With `CC[C@H](C)[C@H](NC(=O)[C@H](CC(C)C)NC(=O)[C@](C)(Cc1ccc(O)cc1)NC(=O)[C@@H](CCC(=O)O)NC(=O)[C@@H](NC(=O)[C@H](Cc1ccccc1)NC(=O)[C@H](CCC(=O)O)NC(=O)C(C)(C)NC(=O)[C@H](CCC(N)=O)NC(=O)[C@H](C)NC(=O)[C@H](CCCCNC(=O)COCCOCCNC(=O)COCCOCCNC(=O)CCCCCCCCCCCCC(=O)O)NC(=O)[C@H](CCCN)NC(=O)[C@H](CC(=O)O)NC(=O)[C@H](CC(C)C)NC(=O)[C@](C)(CC(C)C)NC(=O)[C@@H](NC(=O)[C@H](CO)NC(=O)[C@H](Cc1ccncc1)NC(=O)[C@H](CC(=O)O)NC(=O)[C@H](CO)NC(=O)[C@@H](NC(=O)[C@](C)(Cc1ccccc1F)NC(=O)[C@@H](NC(=O)CNC(=O)[C@H](CCC(=O)O)NC(=O)C(C)(C)NC(=O)[C@@H](N)Cc1ccc(O)cc1)[C@@H](C)O)[C@@H](C)O)[C@@H](C)CC)[C@@H](C)CC)C(=O)N[C@@H](CCC(=O)O)C(=O)NCC(=O)NCC(=O)N[C@@H](CCCCNC(=O)COCCOCCNC(=O)COCCOCCNC(=O)CCCCCCCCCCCCC(=O)O)C(=O)N[C@@H](CO)C(=O)N[C@@H](CO)C(=O)NCC(=O)N[C@@H](C)C(=O)N1CCC[C@H]1C(=O)N1CCC[C@H]1C(=O)N1CCC[C@H]1C(=O)N[C@@H](CO)C(N)=O` [Example 9], the EC50 is 8.82 nM in assay [1] (0.1% bovine casein and 1.0% human serum albumin, 37° C., geometric mean, read-out: hGLP-1R EC50, nM (SEM, n)); > 9950 nM in assay [2] (0.1% bovine casein and 1.0% human serum albumin, 37° C., geometric mean, read-out: hGCGR EC50, nM (SEM, n)); > 9950 nM in assay [2] (cAMP, incubated at 37° C., 0.1% bovine casein (no human serum albumin), geometric mean, read-out: hGCGR EC50, nM (SEM, n)); 0.211 nM in assay [3] (0.1% bovine casein and 1.0% human serum albumin, 37° C., geometric mean, read-out: hGIPR EC50, nM (SEM, n)); 0.0102 nM in assay [3] (cAMP, incubated at 37° C., 0.1% bovine casein (no human serum albumin), geometric mean, read-out: hGIPR EC50, nM (SEM, n)). Moreover, the Emax is 91.6 ± 4.63% in assay [3] (HEK293, 0.1% bovine casein and 1.0% human serum albumin, 37° C., percent of maximal response to GIP(1-42)NH2, read-out: hGIPR Emax, % ± SEM); 93.6 ± 2.36% in assay [3] (HEK293, percent of maximal response to GIP(1-42)NH2, 37° C., 0.1% bovine casein, arithmetic mean, read-out: hGIPR Emax, % ± SEM).
As for `CC[C@H](C)[C@H](NC(=O)[C@H](CCCN)NC(=O)[C@H](CC(=O)O)NC(=O)[C@H](CC(C)C)NC(=O)[C@](C)(CC(C)C)NC(=O)[C@@H](NC(=O)C(C)(C)NC(=O)[C@H](Cc1ccc(O)cc1)NC(=O)[C@H](CC(=O)O)NC(=O)[C@H](CO)NC(=O)[C@@H](NC(=O)[C@](C)(Cc1ccccc1F)NC(=O)[C@@H](NC(=O)CNC(=O)[C@H](CCC(=O)O)NC(=O)C(C)(C)NC(=O)[C@@H](N)Cc1ccc(O)cc1)[C@@H](C)O)[C@@H](C)O)[C@@H](C)CC)C(=O)N[C@@H](C)C(=O)N[C@@H](CCC(N)=O)C(=O)NC(C)(C)C(=O)N[C@@H](CCCCNC(=O)COCCOCCNC(=O)COCCOCCNC(=O)CC[C@H](NC(=O)CCCCCCCCCOc1ccc(C(=O)O)cc1)C(=O)O)C(=O)N[C@@H](Cc1ccccc1)C(=O)N[C@H](C(=O)N[C@H](CCC(=O)O)C(=O)N[C@@](C)(Cc1ccc(O)cc1)C(=O)N[C@@H](CC(C)C)C(=O)N[C@H](C(=O)N[C@@H](CCC(=O)O)C(=O)NCC(=O)NCC(=O)N1CCC[C@H]1C(=O)N[C@@H](CO)C(=O)N[C@@H](CO)C(=O)NCC(=O)N[C@@H](C)C(=O)N1CCC[C@H]1C(=O)N1CCC[C@H]1C(=O)N1CCC[C@H]1C(=O)N[C@@H](CO)C(=O)N[C@@H](CCCCNC(=O)COCCOCCNC(=O)COCCOCCNC(=O)CC[C@H](NC(=O)CCCCCCCCCOc1ccc(C(=O)O)cc1)C(=O)O)C(N)=O)[C@@H](C)CC)[C@@H](C)CC` [Example 241] (H-Y[Aib]EGT[αMePhe(2-F)]TSDY[Aib]I[αMeL]LD[Orn]IAQ[Aib]K([AEEA-AEEA-γGlu-Decanoyl(10-(4-HOOC-PhO))])FI[dE][αMeY]LIEGGPSSGAPPPSK([AEEA-AEEA-γGlu-Decanoyl(10-(4-HOOC-PhO))])-NH2; N-terminus assumed), the Emax in assay [1] (HEK293, read-out: hGLP-1R Emax, % ± SEM, 0.1% bovine casein and 1.0% human serum albumin, 37° C., percent of maximal response to GLP-1(7-36)NH2) stood at 105%; in assay [1] (HEK293, read-out: hGLP-1R Emax, % ± SEM, percent of maximal response to GLP-1(7-36)NH2, 37° C., 0.1% bovine casein, arithmetic mean), 91%; in assay [3] (HEK293, read-out: hGIPR Emax, % ± SEM, 0.1% bovine casein and 1.0% human serum albumin, 37° C., percent of maximal response to GIP(1-42)NH2), 84.9%; in assay [3] (HEK293, read-out: hGIPR Emax, % ± SEM, percent of maximal response to GIP(1-42)NH2, 37° C., 0.1% bovine casein, arithmetic mean), 105%. The EC50 in assay [1] (hGLP-1R EC50, nM (SEM, n), cAMP, incubated at 37° C., 0.1% bovine casein (no human serum albumin), geometric mean) is 0.362 nM; in assay [2] (hGCGR EC50, nM (SEM, n), 0.1% bovine casein and 1.0% human serum albumin, 37° C., geometric mean) it was > 9950 nM; in assay [2] (hGCGR EC50, nM (SEM, n), cAMP, incubated at 37° C., 0.1% bovine casein (no human serum albumin), geometric mean), > 9950 nM; in assay [3] (hGIPR EC50, nM (SEM, n), cAMP, incubated at 37° C., 0.1% bovine casein (no human serum albumin), geometric mean) it was 0.0213 nM.

One may read the Emax as the size of the effect at its maximum, as opposed to the concentration needed. Broadly, the EC50 is the concentration giving half of the maximal effect.
